Test: Distribution of radioactivity in tissues of female rats after intravenous administration
Type: in vivo
Settings: for Distribution of radioactivity in brain / Distribution of radioactivity in thyroid: no unit in table; for Distribution of radioactivity in brain: b28 gives percent dose/g; for Distribution of radioactivity in thyroid: percent
Description: The distribution of radioactivity in tissues of female rats at 5 minutes, 15 minutes, 30 minutes and 60 minutes after intravenous administration of the iodinated compound is shown in the following table. The level of accumulation of radioactivity in the brain after injection of this agent was a significant 1.65 percent dose/g at 5 minutes but the blood levels were also high resulting in blood ratios of 1.6/1 at 5 minutes.

[1] = 1 h (head printed 1 HT/R), intravenous

With `CO[C@@H]1O[C@H](COC(C)=O)[C@@H](OC(C)=O)[C@@H](OC(C)=O)[C@@H]1/C=C/[125I]` [methyl-2-deoxy-2-(E)-[^125 I]-iodovinyl-2,4,6-O-triacetyl-β-D-altropyranoside] the “Distribution of radioactivity in brain” value (5 min, intravenous) was 1.6525, the “Distribution of radioactivity in thyroid” value (5 min, intravenous) was 20.6441 and the blood levels (5 minutes, intravenous, in words) was “high”. The “Distribution of radioactivity in thyroid” value (15 min, intravenous) was 18.9149, the “Distribution of radioactivity in thyroid” value (30 min, intravenous) was 25.7085 and the “Distribution of radioactivity in brain” value [1] was 0.7237. The “Distribution of radioactivity in thyroid” value [1] was 33.4920, the “brain retention compared with the peak uptake at 5 minutes” value (60 minutes vs 5 minutes, intravenous) was 50% and the “accumulation of activity in the thyroid” value (60 minutes, intravenous) was 33.5%. The “stability to in vivo deiodination” value (from thyroid accumulation at 60 minutes, in words) was “demonstrated the stability of this agent to in vivo deiodination” and the “retention in the brain (in words)” value (up to 60 minutes, intravenous) was “prolonged retention in the brain”.

Source: patent publication US4826966A, “Radioiodinated branched carbohydrates” (The United States of America as represented by the United …, priority 1988, dated 1989)
